# Data taken from PubChem BioAssay (NCI).
#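 Briefly, cells in 96-well plates were exposed to five compound concentrations for 48 h, and endpoints were estimated by linear interpolation. At the GI50, growth is halved. Definition used: TGI = concentration required for complete inhibition of growth.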
# How the values were obtained:
# Experiment in all cases: growth of human tumour cells (NCI), 48 h
# [1] = test system: CCRF-CEM leukemia
# [2] = test system: DU-145 prostate
# [3] = test system: HCT-15 colon
# [4] = test system: HS 578T breast
# [5] = test system: KM12 colon
# [6] = test system: MDA-MB-231 breast
# [7] = test system: NCI-H226 lung
# [8] = test system: OVCAR-5 ovarian
# [9] = test system: SK-MEL-28 melanoma
# [10] = test system: UACC-257 melanoma
SMILES,GI50 [1],TGI [1],GI50 [2],TGI [2],GI50 [3],TGI [3],GI50 [4],TGI [4],GI50 [5],TGI [5],GI50 [6],TGI [6],GI50 [7],TGI [7],GI50 [8],TGI [8],GI50 [9],TGI [9],GI50 [10],TGI [10]
CSc1n(Cc2ccc3ccccc3c2)c(C)c[n+]1Cc1ccc2ccccc2c1,0.571 µM,2.31 µM,1.07 µM,2.39 µM,2.12 µM,4.75 µM,1.02 µM,2.7 µM,0.593 µM,1.96 µM,0.484 µM,1.74 µM,1.31 µM,3.18 µM,1.2 µM,2.53 µM,0.854 µM,2.19 µM,0.325 µM,1.12 µM
O=C(NCCN1CCC(O)CC1)c1cc2c(o1)C(=O)c1ccccc1C2=O,0.578 µM,> 30.1 µM,0.179 µM,0.325 µM,0.21 µM,0.624 µM,0.322 µM,0.919 µM,0.481 µM,1.87 µM,0.377 µM,2.9 µM,0.214 µM,0.492 µM,0.212 µM,0.384 µM,0.549 µM,1.74 µM,0.176 µM,0.391 µM
Cc1cccc(Cl)c1NC(=O)c1cnc(Nc2cc(N3CCOCC3)cc(N3CCOCC3)c2)s1,> 6.27 µM,> 10 µM,0.163 µM,> 3.6 µM,0.39 µM,> 10 µM,0.0151 µM,0.157 µM,> 6.22 µM,> 10 µM,0.0189 µM,> 4.59 µM,0.601 µM,> 10 µM,0.0275 µM,> 10 µM,> 5.32 µM,> 10 µM,> 7.93 µM,> 10 µM
O=C(Nc1ccc2[nH]c(C(=O)N3CC(CCl)c4c3cc([N+](=O)[O-])c3ccccc43)cc2c1)c1cc2ccccc2o1 (stereo not given),66.4 µM,377 µM,> 1100 µM,> 1100 µM,> 1100 µM,> 1100 µM,> 1100 µM,> 1100 µM,> 1100 µM,> 1100 µM,> 1100 µM,> 1100 µM,> 1100 µM,> 1100 µM,> 1100 µM,> 1100 µM,> 1100 µM,> 1100 µM,> 1100 µM,> 1100 µM
Nc1nc2ccc3[nH]ncc3c2c2c1CCCC2,2.7 µM,12.5 µM,2.4 µM,10.7 µM,1.88 µM,7.22 µM,1.95 µM,6.8 µM,2.82 µM,11.6 µM,2.74 µM,8.45 µM,1.48 µM,4.59 µM,1.94 µM,8.91 µM,1.62 µM,4.33 µM,3.28 µM,11.6 µM
CC(C)[NH-].CC(C)[NH-].O.O.[Cl][Pt+2][Cl],6.59 µM,97.7 µM,38.7 µM,332 µM,35.7 µM,208 µM,98.8 µM,594 µM,96.1 µM,251 µM,63.8 µM,254 µM,66 µM,259 µM,51.1 µM,145 µM,46.8 µM,197 µM,87.4 µM,279 µM
COc1c2c(c(CC=C(C)C)c3oc(=O)c(-c4ccc(O)cc4)c(O)c13)OC(C)(C)C=C2,,76.8 µM,,> 100 µM,,60.7 µM,,> 100 µM,,35 µM,,65 µM,,62 µM,,> 100 µM,,73 µM,,> 100 µM
COc1ccc2c(c1)c1nc3cc(C)c(C)cc3nc1n2CCN(C)C,0.797 µM,3.67 µM,1.06 µM,2.37 µM,0.417 µM,1.77 µM,1.77 µM,6.23 µM,0.827 µM,2.37 µM,1.17 µM,2.76 µM,1.01 µM,2.97 µM,0.953 µM,2.3 µM,1.65 µM,3.29 µM,1.26 µM,3.17 µM
COc1cc2c(cc1OC)C(CC1(O)CCCCC1)N(S(=O)(=O)c1ccc(C)cc1)CC2 (stereo not given),> 10 µM,> 10 µM,> 10 µM,> 10 µM,> 10 µM,> 10 µM,> 10 µM,> 10 µM,> 10 µM,> 10 µM,> 10 µM,> 10 µM,> 10 µM,> 10 µM,> 10 µM,> 10 µM,> 10 µM,> 10 µM,> 10 µM,> 10 µM
CN1C(=O)C(=Cc2cn(Cc3ccccc3)c3ccccc23)C(=O)N(C)C1=O,> 77.6 µM,> 100 µM,87.2 µM,> 100 µM,> 95.6 µM,> 100 µM,17.8 µM,> 81.5 µM,52.4 µM,> 100 µM,54.1 µM,> 100 µM,3.46 µM,27.8 µM,0.234 µM,0.82 µM,> 70.2 µM,> 100 µM,9.82 µM,> 100 µM
C[C@@H](NC(=O)[C@@H](CC(=O)N1CCC(N2CCCCC2)CC1)N1C(=O)[C@@H](N2C(=O)OC[C@@H]2c2ccccc2)[C@H]1/C=C/c1cccc(Cl)c1)c1ccccc1,2.73 µM,7.93 µM,4.03 µM,14.3 µM,2.56 µM,7.74 µM,2.77 µM,7.16 µM,2.72 µM,9.63 µM,1.9 µM,3.87 µM,14.8 µM,31.2 µM,5.78 µM,20.9 µM,1.8 µM,3.63 µM,1.93 µM,3.84 µM
COc1ccc(-c2cn(-c3cccc(C(=O)/C=C/c4ccc(O)c(OC)c4)c3)c(=O)[nH]2)cc1,1.19 µM,5.81 µM,3.02 µM,9.27 µM,2.64 µM,32.8 µM,3.24 µM,> 27.2 µM,1.7 µM,3.57 µM,4.06 µM,> 54.3 µM,5.25 µM,> 59.5 µM,8.25 µM,35.4 µM,1.99 µM,4.51 µM,8.03 µM,39.3 µM
